What was measured:
[1] = system: Puccinia recondita f. sp. tritici; experiment: Test I: wheat leaf rust, preventive spray on wheat seedlings, visual disease rating; conditions: for Test I rating (% disease control) / Test I disease control rating: wheat leaf rust, 100 = 100% disease control; for pest or weed control at 200 µg/mL: 192 h, read-out: Test I rating (% disease control); for Test I disease control rating: sprayed the day before inoculation, 0 = no disease control relative to controls
Botrytis cinerea = experiment: Test B: tomato Botrytis, preventive spray on tomato seedlings, visual disease rating; conditions: for Test B rating (% disease control) / Test B disease control rating: tomato Botrytis, 100 = 100% disease control; for pest or weed control at 200 µg/mL: Botrytis cinerea, in Solanum lycopersicum, 120 h, read-out: Test B rating (% disease control); for Test B disease control rating: 0 = no disease control relative to controls
Septoria tritici = experiment: Test G: wheat leaf blotch, preventive spray on wheat seedlings, visual disease rating; conditions: for Test G rating (% disease control) / Test G disease control rating: wheat leaf blotch, 100 = 100% disease control; for pest or weed control at 200 µg/mL: Zymoseptoria tritici, in Triticum aestivum, 504 h, read-out: Test G rating (% disease control); for Test G disease control rating: sprayed the day before inoculation, 0 = no disease control relative to controls
Alternaria solani = experiment: Test C: tomato early blight, preventive spray on tomato seedlings, visual disease rating; conditions: for Test C rating (% disease control) / Test C disease control rating: tomato early blight, 100 = 100% disease control; for pest or weed control at 200 µg/mL: Alternaria solani, in Solanum lycopersicum, 168 h, read-out: Test C rating (% disease control); for Test C disease control rating: 0 = no disease control relative to controls
[2] = system: Erysiphe graminis f sp. tritici; experiment: Test J: wheat powdery mildew, preventive spray on wheat seedlings, visual disease rating; conditions: for Test J rating (% disease control) / Test J disease control rating: wheat powdery mildew, 100 = 100% disease control; for pest or weed control at 200 µg/mL: Blumeria graminis, in Triticum aestivum, 192 h, read-out: Test J rating (% disease control); for Test J disease control rating: sprayed the day before inoculation, 0 = no disease control relative to controls
Source text: (§1) General protocol for preparing test suspensions for Tests A-J: the test compounds were first dissolved in acetone in an amount equal to 3% of the final volume and then suspended at the desired concentration (in ppm) in acetone and purified water (50/50 mix by volume) containing 250 ppm of the surfactant Trem® 014 (polyhydric alcohol esters). The resulting test suspensions were then used in Tests A-J. Spraying a 200 ppm test suspension to the point of run-off on the test plants was the equivalent of a rate of 500 g/ha. Unless otherwise indicated, the rating values indicate a 200 ppm test suspension was used. (An asterisk “*” next to the rating value indicates a 40 ppm test suspension was used.)
The test suspension was sprayed to the point of run-off on wheat seedlings. The following day the seedlings were inoculated with a spore dust of Erysiphe graminis f sp. tritici, (the causal agent of wheat powdery mildew) and incubated in a growth chamber at 20° C. for 8 days, after which time visual disease ratings were made.

Septoria nodorum = experiment: Test F: Septoria glume blotch, preventive spray on wheat seedlings, visual disease rating; conditions: for Test F rating (% disease control) / Test F disease control rating: 100 = 100% disease control; for pest or weed control at 200 µg/mL: Parastagonospora nodorum, in Triticum aestivum, 192 h, read-out: Test F rating (% disease control); for Test F disease control rating: 0 = no disease control relative to controls
[3] = system: Puccinia recondita f. sp. tritici; experiment: Test H: wheat leaf rust, curative spray on inoculated wheat seedlings, visual disease rating; conditions: for Test H rating (% disease control) / Test H disease control rating: wheat leaf rust, 100 = 100% disease control; for pest or weed control at 200 µg/mL: 144 h, read-out: Test H rating (% disease control); for Test H disease control rating: sprayed after inoculation, 0 = no disease control relative to controls
Source text: as §1
Wheat seedlings were inoculated with a spore suspension of Puccinia recondita f. sp. tritici (the causal agent of wheat leaf rust) and incubated in a saturated atmosphere at 20° C. for 24 h, and then moved to a growth chamber at 20° C. for 2 days. At the end of this time the test suspension was sprayed to the point of run-off, and then the seedlings were moved to a growth chamber at 20° C. for 6 days after which time visual disease ratings were made.

[4] = preventive, 0 = no control relative to controls
[5] = 0 = no control relative to controls
[6] = Septoria glume blotch, 0 = no control relative to controls
[7] = curative, 0 = no control relative to controls
[8] = preventive spray, 0 = no control
[9] = Septoria glume blotch on wheat, preventive spray, 0 = no control

Cc1nn(C)c(Oc2cccc(C#N)c2)c1-c1c(F)cc(F)cc1F [compound 222]
Test I rating (% disease control) [1, 4]: 99% | Test B rating (% disease control) (Botrytis cinerea; [5]): 99% | Test G rating (% disease control) (Septoria tritici; [5]): 100% | Test C rating (% disease control) (Alternaria solani; [5]): 99% | Test J rating (% disease control) [2, 5]: 100% | Test F rating (% disease control) (Septoria nodorum; [6]): 0% | Test H rating (% disease control) [3, 7]: 88%

Cc1nn(C)c(Nc2ccc(F)cc2)c1-c1c(F)cc(C#N)cc1F [compound 111]
Test I rating (% disease control) [1, 8]: 97% | Test B rating (% disease control) (Botrytis cinerea; [8]): 99% | Test G rating (% disease control) (Septoria tritici; [8]): 99% | Test C rating (% disease control) (Alternaria solani; [8]): 75% | Test J rating (% disease control) [2, 8]: 99% | Test F rating (% disease control) (Septoria nodorum; [9]): 90% | Test H rating (% disease control) ([3]; curative spray, 0 = no control): 0%

COc1cc(F)c(-c2c(C)nn(C)c2Oc2c(F)cc(Cl)cc2F)c(F)c1 [Compound 58, 5-(4-Chloro-2,6-difluorophenoxy)-4-(2,6-difluoro-4-methoxyphenyl)-1,3-dimethyl-1H-pyrazole]
pest or weed control at 200 µg/mL [1]: 100% | pest or weed control at 200 µg/mL (Botrytis cinerea): 98% | pest or weed control at 200 µg/mL (Septoria tritici): 98% | pest or weed control at 200 µg/mL (Alternaria solani): 100% | pest or weed control at 200 µg/mL [2]: 100% | pest or weed control at 200 µg/mL (Septoria nodorum): 89% | pest or weed control at 200 µg/mL [3]: 82%

Cc1nn(C)c(Nc2ccc(F)c(F)c2)c1-c1c(F)cc(C#N)cc1F [compound 114]
Test I rating (% disease control) [1, 8]: 99% | Test B rating (% disease control) (Botrytis cinerea; [8]): 99% | Test G rating (% disease control) (Septoria tritici; [8]): 99% | Test C rating (% disease control) (Alternaria solani; [8]): 24% | Test J rating (% disease control) [2, 8]: 84% | Test F rating (% disease control) (Septoria nodorum; [9]): 69% | Test H rating (% disease control) ([3]; curative spray, 0 = no control): 8%

Cc1nn(C)c(Nc2ccc(C#N)cn2)c1-c1ccc(F)cc1Cl [compound 67]
Test I rating (% disease control) [1, 8]: 95% | Test B rating (% disease control) (Botrytis cinerea; [8]): 95% | Test G rating (% disease control) (Septoria tritici; [8]): 99% | Test C rating (% disease control) (Alternaria solani; [8]): 0% | Test J rating (% disease control) [2, 8]: 86% | Test F rating (% disease control) (Septoria nodorum; [9]): 0% | Test H rating (% disease control) ([3]; curative spray, 0 = no control): 24%

Cc1nn(C)c(Nc2ccc(F)cc2Br)c1-c1ccc(F)cc1Cl [Compound 265, N-(2-bromo-4-fluorophenyl)-4-(2-chloro-4-fluorophenyl)-1,3-dimethyl-1H-pyrazol-5-amine]
pest or weed control at 200 µg/mL [1]: 100% | pest or weed control at 200 µg/mL (Botrytis cinerea): 100% | pest or weed control at 200 µg/mL (Septoria tritici): 100% | pest or weed control at 200 µg/mL (Alternaria solani): 99% | pest or weed control at 200 µg/mL [2]: 100% | pest or weed control at 200 µg/mL (Septoria nodorum): 78% | pest or weed control at 200 µg/mL [3]: 90%

COc1cc(F)c(-c2c(C)nn(C)c2Nc2ccc(C#N)cc2Cl)c(F)c1 [compound 117]
Test I rating (% disease control) [1, 8]: 98% | Test B rating (% disease control) (Botrytis cinerea; [8]): 99% | Test G rating (% disease control) (Septoria tritici; [8]): 100% | Test C rating (% disease control) (Alternaria solani; [8]): 97% | Test J rating (% disease control) [2, 8]: 97% | Test F rating (% disease control) (Septoria nodorum; [9]): 82% | Test H rating (% disease control) ([3]; curative spray, 0 = no control): 11%

Cc1nn(C)c(Nc2ncc(Cl)cc2Cl)c1-c1c(F)cccc1F [compound 321]
Test I disease control rating [1]: 99% | Test B disease control rating (Botrytis cinerea): 100% | Test G disease control rating (Septoria tritici): 100% | Test C disease control rating (Alternaria solani): 99% | Test J disease control rating [2]: 100% | Test F disease control rating (Septoria nodorum; Septoria glume blotch on wheat): 78% | Test H disease control rating [3]: 9%

Cc1nn(C)c(Oc2ccc(Br)c(F)c2)c1-c1c(F)cc(F)cc1F [compound 130]
Test I rating (% disease control) [1, 8]: 19% | Test B rating (% disease control) (Botrytis cinerea; [8]): 97% | Test G rating (% disease control) (Septoria tritici; [8]): 99% | Test C rating (% disease control) (Alternaria solani; [8]): 0% | Test J rating (% disease control) [2, 8]: 0% | Test F rating (% disease control) (Septoria nodorum; [9]): 0% | Test H rating (% disease control) ([3]; curative spray, 0 = no control): 0%

Cc1nn(C)c(Nc2c(F)cc(C#N)cc2F)c1-c1ccc(F)cc1Cl [Compound 91, 4-[[4-(2-chloro-4-fluorophenyl)-1,3-dimethyl-1H-pyrazol-5-yl]amino]-3,5-difluorobenzonitrile]
pest or weed control at 200 µg/mL [1]: 100% | pest or weed control at 200 µg/mL (Botrytis cinerea): 100% | pest or weed control at 200 µg/mL (Septoria tritici): 99% | pest or weed control at 200 µg/mL (Alternaria solani): 99% | pest or weed control at 200 µg/mL [2]: 100% | pest or weed control at 200 µg/mL (Septoria nodorum): 95% | pest or weed control at 200 µg/mL [3]: 0%

COc1ccc(-c2c(C)nn(C)c2Oc2ccc(C#N)cc2F)c(Br)c1 [compound 319]
Test I disease control rating [1]: 99% | Test B disease control rating (Botrytis cinerea): 92% | Test G disease control rating (Septoria tritici): 100% | Test C disease control rating (Alternaria solani): 88% | Test J disease control rating [2]: 95% | Test F disease control rating (Septoria nodorum; Septoria glume blotch on wheat): 100% | Test H disease control rating [3]: 0%

COc1cc(F)c(-c2c(C)nn(C)c2Nc2cc(Cl)c(OC)cc2OC)c(F)c1 [compound 81]
Test I rating (% disease control) [1, 8]: 27% | Test B rating (% disease control) (Botrytis cinerea; [8]): 97% | Test G rating (% disease control) (Septoria tritici; [8]): 0% | Test C rating (% disease control) (Alternaria solani; [8]): 0% | Test J rating (% disease control) [2, 8]: 0% | Test F rating (% disease control) (Septoria nodorum; [9]): 0% | Test H rating (% disease control) ([3]; curative spray, 0 = no control): 0%

Cc1nn(C)c(Oc2c(F)cc(C#N)cc2F)c1-c1cc(F)ccc1Cl [compound 276]
Test I rating (% disease control) [1, 4]: 100% | Test B rating (% disease control) (Botrytis cinerea; [5]): 100% | Test G rating (% disease control) (Septoria tritici; [5]): 100% | Test C rating (% disease control) (Alternaria solani; [5]): 99% | Test J rating (% disease control) [2, 5]: 100% | Test F rating (% disease control) (Septoria nodorum; [6]): 98% | Test H rating (% disease control) [3, 7]: 31%

Cc1nn(C)c(Oc2ccc(Cl)cn2)c1-c1c(F)cc(F)cc1F [compound 39]
Test I rating (% disease control) [1, 8]: 99% | Test B rating (% disease control) (Botrytis cinerea; [8]): 100% | Test G rating (% disease control) (Septoria tritici; [8]): 99% | Test C rating (% disease control) (Alternaria solani; [8]): 99% | Test J rating (% disease control) [2, 8]: 99% | Test F rating (% disease control) (Septoria nodorum; [9]): 0% | Test H rating (% disease control) ([3]; curative spray, 0 = no control): 99%

Cc1nn(C)c(Oc2ccc(C#N)cc2F)c1-c1ccc(F)cc1Cl [Compound 118, 4-[[4-(2-chloro-4-fluorophenyl)-1,3-dimethyl-1H-pyrazol-5-yl]oxy]-3-fluorobenzonitrile]
pest or weed control at 200 µg/mL [1]: 100% | pest or weed control at 200 µg/mL (Botrytis cinerea): 100% | pest or weed control at 200 µg/mL (Septoria tritici): 100% | pest or weed control at 200 µg/mL (Alternaria solani): 100% | pest or weed control at 200 µg/mL [2]: 99% | pest or weed control at 200 µg/mL (Septoria nodorum): 98% | pest or weed control at 200 µg/mL [3]: 99%

Cc1nn(C)c(Nc2ccc(F)cc2)c1-c1ccccc1F [compound 184]
Test I rating (% disease control) [1, 4]: 82% | Test B rating (% disease control) (Botrytis cinerea; [5]): 97% | Test G rating (% disease control) (Septoria tritici; [5]): 99% | Test C rating (% disease control) (Alternaria solani; [5]): 0% | Test J rating (% disease control) [2, 5]: 98% | Test F rating (% disease control) (Septoria nodorum; [6]): 0% | Test H rating (% disease control) [3, 7]: 0%

Cc1nn(C)c(Nc2cc(Cl)ccc2Cl)c1-c1c(F)cc(C#N)cc1F [compound 146]
Test I rating (% disease control) [1, 8]: 97% | Test B rating (% disease control) (Botrytis cinerea; [8]): 99% | Test G rating (% disease control) (Septoria tritici; [8]): 99% | Test C rating (% disease control) (Alternaria solani; [8]): 0% | Test J rating (% disease control) [2, 8]: 56% | Test F rating (% disease control) (Septoria nodorum; [9]): 0% | Test H rating (% disease control) ([3]; curative spray, 0 = no control): 0%

Cc1nn(C)c(Nc2c(Cl)cc(F)cc2Cl)c1-c1c(Cl)cccc1Cl [compound 341]
Test I disease control rating [1]: 99% | Test B disease control rating (Botrytis cinerea): 99% | Test G disease control rating (Septoria tritici): 99% | Test C disease control rating (Alternaria solani): 0% | Test J disease control rating [2]: 93% | Test F disease control rating (Septoria nodorum; Septoria glume blotch on wheat): 0% | Test H disease control rating [3]: 0%

Cc1nn(C)c(Oc2c(Cl)cc(C(F)(F)F)cc2Cl)c1-c1c(F)cc(F)cc1F [compound 30]
Test I rating (% disease control) [1, 8]: 79% | Test B rating (% disease control) (Botrytis cinerea; [8]): 7% | Test G rating (% disease control) (Septoria tritici; [8]): 41% | Test C rating (% disease control) (Alternaria solani; [8]): 0% | Test J rating (% disease control) [2, 8]: 0% | Test F rating (% disease control) (Septoria nodorum; [9]): 0% | Test H rating (% disease control) ([3]; curative spray, 0 = no control): 0%

Cc1nn(C)c(Nc2ccc(F)cc2F)c1-c1ccccc1C(F)(F)F [compound 238]
Test I rating (% disease control) [1, 4]: 9% | Test B rating (% disease control) (Botrytis cinerea; [5]): 99% | Test G rating (% disease control) (Septoria tritici; [5]): 0% | Test C rating (% disease control) (Alternaria solani; [5]): 0% | Test J rating (% disease control) [2, 5]: 43% | Test F rating (% disease control) (Septoria nodorum; [6]): 0% | Test H rating (% disease control) [3, 7]: 53%

Source: patent publication US10448639B2, “Fungicidal pyrazoles” (FMC CORPORATION, priority 2009, dated 2019)
